Test results as given in ChEMBL document CHEMBL5055629, “Design and synthesis of Grp94 selective inhibitors based on Phe199 induced fit mechanism and their anti-inflammatory effects” (Eur J Med Chem, 2021).
In brackets after ≈: the same amount, converted by molar mass.

Legend:
Endoplasmin [1] = biological target: T1, Endoplasmin (Canis lupus familiaris, UniProt P41148); assay: Inhibition of GST-tagged dog GRP94 (69 to 337 residues) expressed in Escherichia coli BL21 (DE3) measured after 4 hrs by fluorescent polarization assay
T1 sequence (P41148 whole entry, the tested form may be a part): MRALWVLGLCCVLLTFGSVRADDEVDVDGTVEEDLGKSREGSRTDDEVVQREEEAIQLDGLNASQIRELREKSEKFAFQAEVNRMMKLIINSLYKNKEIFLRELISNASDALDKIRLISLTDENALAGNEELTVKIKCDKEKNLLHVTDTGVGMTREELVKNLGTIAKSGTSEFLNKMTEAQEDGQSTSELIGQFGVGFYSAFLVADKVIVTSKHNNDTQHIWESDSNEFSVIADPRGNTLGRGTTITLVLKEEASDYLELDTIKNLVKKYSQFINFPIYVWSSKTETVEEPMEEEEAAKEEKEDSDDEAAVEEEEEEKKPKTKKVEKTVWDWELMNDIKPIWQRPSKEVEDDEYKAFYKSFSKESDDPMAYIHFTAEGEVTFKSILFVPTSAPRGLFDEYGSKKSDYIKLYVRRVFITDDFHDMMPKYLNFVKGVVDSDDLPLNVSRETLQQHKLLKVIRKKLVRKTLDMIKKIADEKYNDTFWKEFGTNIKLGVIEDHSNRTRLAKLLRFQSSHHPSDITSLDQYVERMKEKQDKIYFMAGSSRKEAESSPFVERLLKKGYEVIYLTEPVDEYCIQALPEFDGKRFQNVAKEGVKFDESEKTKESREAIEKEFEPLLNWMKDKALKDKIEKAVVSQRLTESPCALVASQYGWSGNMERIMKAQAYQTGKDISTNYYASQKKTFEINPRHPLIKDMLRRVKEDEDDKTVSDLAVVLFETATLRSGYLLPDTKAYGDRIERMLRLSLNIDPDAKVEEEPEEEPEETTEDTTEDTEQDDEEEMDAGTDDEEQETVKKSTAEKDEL

[2] = Apparent volume of distribution in Sprague-Dawley rat at 10 mg/kg, iv measured after 24 hrs by LC-MS/MS analysis; format: ADME, organism-based; settings: in vivo
[3] = AUC (0 to infinity) in Sprague-Dawley rat at 10 mg/kg, iv measured after 24 hrs by LC-MS/MS analysis; format: ADME, organism-based; set-up: dose 10 mg/kg, time 24 hrs, route iv; settings: in vivo
Mus musculus [4] = assay: Toxicity in DSS-induced Ulcerative colitis C57BL/6 mouse model assessed as effect on liver weight index at 10 to 50 mg/kg, ip measured after 8 days; settings: in vivo, 192 h
[5] = Clearance in Sprague-Dawley rat at 40 mg/kg, po measured after 24 hrs by LC-MS/MS analysis; format: ADME, organism-based; settings: in vivo
[6] = Aqueous solubility of compound; format: physicochemical; settings: buffer
Mus musculus [7] = assay: Anti-ulcerative colitis activity against DSS-induced Ulcerative colitis C57BL/6 mouse model assessed as disease activity index at 50 mg/kg, ip measured for 8 days (reference value: 8.37+/-0.3); format: functional; settings: time 8 day
Mus musculus [8] = assay: Anti-ulcerative colitis activity against DSS-induced Ulcerative colitis C57BL/6 mouse model assessed as disease activity index at 10 mg/kg, ip measured for 8 days (reference value: 8.37+/-0.3); format: functional; settings: time 8 day
Endoplasmin [9] = biological target: T1, Endoplasmin; assay: Binding affinity to GST-tagged dog GRP94 (69 to 337 residues) expressed in Escherichia coli BL21 (DE3) assessed as dissociation rate constant at 0.37 to 10 uM measured by BLI assay
[10] = AUC (0 to infinity) in Sprague-Dawley rat at 40 mg/kg, po measured after 24 hrs by LC-MS/MS analysis; format: ADME, organism-based; set-up: dose 40 mg/kg, time 24 hrs, route po; settings: in vivo
[11] = Half life in Sprague-Dawley rat at 40 mg/kg, po measured after 24 hrs by LC-MS/MS analysis; format: ADME, organism-based; settings: in vivo
[12] = Metabolic stability in mouse microsomes assessed as half life in presence of NADPH at 10 uM measured after 120 mins by LC-MS/MS analysis; format: ADME, Microsome
[13] = Cmax in Sprague-Dawley rat at 40 mg/kg, po measured after 24 hrs by LC-MS/MS analysis; format: ADME, organism-based; set-up: time 24 hrs, dose 40 mg/kg, route po; settings: in vivo
[14] = Lipophilicity, logD of compound at pH 7.4; format: physicochemical; settings: buffer
[15] = biological target: Endoplasmin (Canis lupus familiaris) (UniProt P41148); settings: dose 0.37-10 µM
Sequence of Endoplasmin (Canis lupus familiaris) (P41148 whole entry): as the sequence (P41148 whole entry, the tested form may be a part) above
Description: Binding affinity to GST-tagged dog GRP94 (69 to 337 residues) expressed in Escherichia coli BL21 (DE3) assessed as association constant at 0.37 to 10 uM measured by BLI assay

Mus musculus [16] = assay: Anti-ulcerative colitis activity against DSS-induced Ulcerative colitis C57BL/6 mouse model assessed as disease activity index at 30 mg/kg, ip measured for 8 days (reference value: 8.37+/-0.3); format: functional; settings: time 8 day
[17] = Tmax in Sprague-Dawley rat at 40 mg/kg, po measured after 24 hrs by LC-MS/MS analysis; format: ADME, organism-based; settings: in vivo
[18] = Tmax in Sprague-Dawley rat at 10 mg/kg, iv measured after 24 hrs by LC-MS/MS analysis; format: ADME, organism-based; settings: in vivo
Mus musculus [19] = assay: Toxicity in DSS-induced Ulcerative colitis C57BL/6 mouse model assessed as loss of body weight at 10 to 50 mg/kg, ip measured for 9 days; format: organism-based; settings: in vivo, 216 h, dose 10-50 mg/kg, time 9 day
[20] = Cmax in Sprague-Dawley rat at 10 mg/kg, iv measured after 24 hrs by LC-MS/MS analysis; format: ADME, organism-based; set-up: dose 10 mg/kg, time 24 hrs, route iv; settings: in vivo
[21] = Metabolic stability in human microsomes assessed as half life in presence of NADPH at 10 uM measured after 120 mins by LC-MS/MS analysis; format: ADME, Microsome
[22] = Metabolic stability in mouse microsomes assessed as clearance in presence of NADPH at 10 uM measured after 120 mins by LC-MS/MS analysis; format: ADME, Microsome; settings: 2 h
[23] = Oral bioavailability in Sprague-Dawley rat at 40 mg/kg measured after 24 hrs by LC-MS/MS analysis; format: ADME, organism-based; settings: in vivo
[24] = biological target: T2, Heat shock protein HSP 90-alpha (Homo sapiens, UniProt P07900); assay: Binding affinity to His-tagged human N-terminal HSP90alpha (1 to 236 residues) expressed in Escherichia coli BL21 (DE3) assessed as dissociation rate constant at 1.1 to 30 uM measured by BLI assay
[25] = Apparent volume of distribution in Sprague-Dawley rat at 40 mg/kg, po measured after 24 hrs by LC-MS/MS analysis; format: ADME, organism-based; settings: in vivo
[26] = Permeability of compound at pH 7.4; format: ADME; settings: not told, read-out: permeability
[27] = Metabolic stability in human microsomes assessed as clearance in presence of NADPH at 10 uM measured after 120 mins by LC-MS/MS analysis; format: ADME, Microsome; settings: 2 h
[28] = biological target: T2, Heat shock protein HSP 90-alpha; settings: dose 1.1-30 µM
Description: Binding affinity to His-tagged human N-terminal HSP90alpha (1 to 236 residues) expressed in Escherichia coli BL21 (DE3) assessed as association constant at 1.1 to 30 uM measured by BLI assay

[29] = Clearance in Sprague-Dawley rat at 10 mg/kg, iv measured after 24 hrs by LC-MS/MS analysis; format: ADME, organism-based; settings: in vivo
[30] = Half life in Sprague-Dawley rat at 10 mg/kg, iv measured after 24 hrs by LC-MS/MS analysis; format: ADME, organism-based; settings: in vivo
[31] = biological target: T2, Heat shock protein HSP 90-alpha; assay: Binding affinity to Hsp90alpha (unknown origin) by fluorescent polarization assay
Endoplasmin [32] = biological target: Endoplasmin (Homo sapiens, UniProt P14625); assay: Binding affinity to Grp94 (unknown origin) by fluorescent polarization assay
Sequence of Endoplasmin (Homo sapiens, UniProt P14625) (P14625 whole entry): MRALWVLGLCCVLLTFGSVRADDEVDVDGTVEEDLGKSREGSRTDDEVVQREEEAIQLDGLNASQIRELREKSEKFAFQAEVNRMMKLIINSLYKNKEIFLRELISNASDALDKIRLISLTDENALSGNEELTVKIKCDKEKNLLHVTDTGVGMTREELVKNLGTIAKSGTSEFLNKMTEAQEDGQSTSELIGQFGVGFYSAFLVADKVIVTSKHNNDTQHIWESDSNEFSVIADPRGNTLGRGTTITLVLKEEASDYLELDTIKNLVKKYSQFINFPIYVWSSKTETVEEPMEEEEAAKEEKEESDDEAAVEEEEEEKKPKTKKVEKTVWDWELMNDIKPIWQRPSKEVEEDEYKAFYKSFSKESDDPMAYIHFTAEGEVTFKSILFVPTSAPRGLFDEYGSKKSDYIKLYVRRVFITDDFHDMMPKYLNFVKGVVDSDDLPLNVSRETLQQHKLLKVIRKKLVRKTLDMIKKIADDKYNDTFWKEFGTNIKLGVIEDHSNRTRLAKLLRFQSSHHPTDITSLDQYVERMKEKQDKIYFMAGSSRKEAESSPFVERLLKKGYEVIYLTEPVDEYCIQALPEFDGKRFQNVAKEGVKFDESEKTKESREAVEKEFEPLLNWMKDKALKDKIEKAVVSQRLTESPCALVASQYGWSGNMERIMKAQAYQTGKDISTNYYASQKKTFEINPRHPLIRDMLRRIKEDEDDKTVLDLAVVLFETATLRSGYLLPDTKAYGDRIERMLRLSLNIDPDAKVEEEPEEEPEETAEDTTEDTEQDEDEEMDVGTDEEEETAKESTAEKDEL

SMILES: CCCCC#Cc1ccc(NC2CCN(C(=O)CN3CCOCC3)CC2)c(C(N)=O)c1
- IC50 (Endoplasmin [1]): 1490 nM

SMILES: CC(C)C#Cc1ccc(N[C@H]2CC[C@H](O)CC2)c(C(N)=O)c1
- IC50 (Endoplasmin [1]): 914 nM

SMILES: CCCCC#Cc1ccc(NCC2CCN(C(=O)C3CC3)CC2)c(C(N)=O)c1
- IC50 (Endoplasmin [1]): 2410 nM

SMILES: CCCCC#Cc1ccc(N[C@H]2CC[C@H](O)CC2)c(C(N)=O)c1
- Vz [2]: 1.47 L/kg
- AUC [3]: 1.51 µg/mL/h
- Activity (Mus musculus [4]): Non-Toxic
- CL [5]: 72.8 mL/min/kg
- solubility [6]: 11 µg/mL (≈ 35 µM)
- IC50 (Endoplasmin [1]): 60 nM
- Activity_index (Mus musculus [7]): 1.76
- Activity_index (Mus musculus [8]): 3.04
- koff (Endoplasmin [9]): 2.84 10^-2/s
- AUC [10]: 0.95 µg/mL/h
- t1/2 [11]: 4.69 h
- half-life at 10 µM [12]: 1.8 h
- Cmax [13]: 600 ng/mL
- logD [14]: 3.69
- Ka [15]: 2.56 10^5/M/s
- Activity_index (Mus musculus [16]): 2.3
- Tmax [17]: 0.38 h
- Tmax [18]: 3 min
- Activity (Mus musculus [19]): Non-Toxic
- Cmax [20]: 2410 ng/mL
- half-life at 10 µM [21]: 5.78 h
- CL [22]: 11 µL/min/mg
- bioavailability [23]: 15.7%
- koff [24]: 1.14 10^-2/s
- Vz [25]: 2.81 L/kg
- Papp [26]: 97.9 ×10⁻⁶ cm/s
- CL [27]: 12.8 µL/min/mg
- Ka [28]: 1.22 10^5/M/s
- CL [29]: 111 mL/min/kg
- t1/2 [30]: 15.25 h

SMILES: CCCCC#Cc1ccc(NCC2CCN(C(C)=O)CC2)c(C(N)=O)c1
- IC50 (Endoplasmin [1]): 4780 nM

SMILES: CCCCC#Cc1ccc(NC2CCNCC2)c(C(N)=O)c1
- IC50 (Endoplasmin [1]): 1610 nM

SMILES: CN(C)CC#Cc1ccc(N[C@H]2CC[C@H](O)CC2)c(C(N)=O)c1
- IC50 (Endoplasmin [1]): 62600 nM

SMILES: CCCCC#Cc1ccc(NC2CCCNC2)c(C(N)=O)c1 (stereo not drawn)
- IC50 (Endoplasmin [1]): 627 nM

SMILES: CCCCC#Cc1ccc(NCCOCC)c(C(N)=O)c1
- IC50 (Endoplasmin [1]): 7540 nM

SMILES: CCCCC#Cc1ccc(NC2CCOCC2)c(C(N)=O)c1
- IC50 (Endoplasmin [1]): 234 nM

SMILES: CCCCC#Cc1ccc(NCC2CCNCC2)c(C(N)=O)c1
- IC50 (Endoplasmin [1]): 16600 nM

SMILES: NC(=O)c1cc(C#CC2CCCCC2)ccc1N[C@H]1CC[C@H](O)CC1
- IC50 (Endoplasmin [1]): 210 nM

SMILES: CC(C)c1cc(C(=O)N2Cc3ccc(CN4CCN(C)CC4)cc3C2)c(O)cc1O [ONALESPIB]
- IC50 (Endoplasmin [1]): 13 nM

SMILES: CC(C)NCCCn1c(Sc2cc(Cl)cc(Cl)c2)nc2c(N)ncnc21
- Kd [31]: > 250000 nM
- Kd (Endoplasmin [32]): 220 nM

SMILES: CCCCC#Cc1ccc(NC2CCN(C(=O)C3CC3)CC2)c(C(N)=O)c1
- IC50 (Endoplasmin [1]): 528 nM

SMILES: CCCCC#Cc1ccc(NC2CCOC2)c(C(N)=O)c1 (stereo not drawn)
- IC50 (Endoplasmin [1]): 310 nM

SMILES: CCCCC#Cc1ccc(NC2CCN(C(=O)CC3CC3)CC2)c(C(N)=O)c1
- IC50 (Endoplasmin [1]): 797 nM

SMILES: CC(C)CCC#Cc1ccc(N[C@H]2CC[C@H](O)CC2)c(C(N)=O)c1
- IC50 (Endoplasmin [1]): 519 nM

SMILES: CCCCC#Cc1ccc(NCC2CCOCC2)c(C(N)=O)c1
- IC50 (Endoplasmin [1]): 393 nM

SMILES: CCN(CC)CC#Cc1ccc(N[C@H]2CC[C@H](O)CC2)c(C(N)=O)c1
- IC50 (Endoplasmin [1]): > 100000 nM

SMILES: CCCCC#Cc1ccc(NC2CCCN(C(C)=O)C2)c(C(N)=O)c1 (stereo not drawn)
- IC50 (Endoplasmin [1]): 2040 nM

SMILES: CCCCC#Cc1ccc(NCCCOC)c(C(N)=O)c1
- IC50 (Endoplasmin [1]): 2060 nM

SMILES: CCCCC#Cc1ccc(NCCNC(C)=O)c(C(N)=O)c1
- IC50 (Endoplasmin [1]): 2020 nM

SMILES: CCOc1ccccc1Cn1ccnc1CCc1c(Cl)c(O)cc(O)c1C(=O)OC
- Kd [31]: 8200 nM

SMILES: CC(C)c1ccc(-c2ccc(N[C@H]3CC[C@H](O)CC3)c(C(N)=O)c2)cc1
- solubility [6]: 3.9 µg/mL (≈ 11.1 µM)
- IC50 (Endoplasmin [1]): 20 nM
- half-life at 10 µM [12]: 1.04 h
- logD [14]: 4.59
- half-life at 10 µM [21]: 4.28 h
- CL [22]: 13.5 µL/min/mg
- Papp [26]: 99.2 ×10⁻⁶ cm/s
- CL [27]: 25.5 µL/min/mg

SMILES: CCCCC#Cc1ccc(NCCOC)c(C(N)=O)c1
- IC50 (Endoplasmin [1]): 10900 nM

SMILES: CCCCC#Cc1ccc(NCCO)c(C(N)=O)c1
- IC50 (Endoplasmin [1]): 6840 nM

SMILES: CCCCC#Cc1ccc(NC2CCN(C(=O)CCN3CCOCC3)CC2)c(C(N)=O)c1
- IC50 (Endoplasmin [1]): 985 nM

SMILES: NC(=O)c1cc(C#CCCCCl)ccc1N[C@H]1CC[C@H](O)CC1
- IC50 (Endoplasmin [1]): 205 nM

SMILES: CCCCC#Cc1ccc(NCCCOCC)c(C(N)=O)c1
- IC50 (Endoplasmin [1]): 3310 nM

SMILES: NC(=O)c1cc(C#CC2CCCC2)ccc1N[C@H]1CC[C@H](O)CC1
- IC50 (Endoplasmin [1]): 100 nM

SMILES: CC(C)CC#Cc1ccc(N[C@H]2CC[C@H](O)CC2)c(C(N)=O)c1
- IC50 (Endoplasmin [1]): 313 nM

SMILES: CCCCC#Cc1ccc(NC2CCN(C(C)=O)CC2)c(C(N)=O)c1
- solubility [6]: 16 µg/mL (≈ 46.9 µM)
- IC50 (Endoplasmin [1]): 203 nM
- logD [14]: 3.24
- Papp [26]: 94.6 ×10⁻⁶ cm/s

SMILES: NC(=O)c1cc(C#CC2CC2)ccc1N[C@H]1CC[C@H](O)CC1
- IC50 (Endoplasmin [1]): 251 nM

SMILES: CCCCC#Cc1ccc(NC2CCN(C(=O)CN(C)C)CC2)c(C(N)=O)c1
- IC50 (Endoplasmin [1]): 1110 nM

SMILES: CCCCC#Cc1ccc(NCCCO)c(C(N)=O)c1
- IC50 (Endoplasmin [1]): 2770 nM

SMILES: CC(C)(C)C#Cc1ccc(N[C@H]2CC[C@H](O)CC2)c(C(N)=O)c1
- IC50 (Endoplasmin [1]): 325 nM

SMILES: CCCCC#Cc1ccc(NCC2CCOC2)c(C(N)=O)c1 (stereo not drawn)
- IC50 (Endoplasmin [1]): 947 nM
